Laboratory results reported in PubChem BioAssay AID2060614 (Molecular Pharmacology Branch, DTP, NCI, 2025).
Where “and” joins values, the source holds several entries; their conditions need not be identical. Equal entries are not always repeated.

System: 598228-144-R-J1-PDC complex spheroids, viability
Assay: Anticancer human tumor 598228-144-R-J1-PDC patient-derived serous endometrial adenocarcinoma cell line growth inhibition [CLK]
Conditions: for viability, T/C: stronger effect = lower value
How it was run: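 Multi-cell-type spheroids combined patient-derived tumor cells with HUVEC endothelial cells and human mesenchymal stem cells. Paired agents were dosed in half-log steps down from about clinical Cmax, or from 10 microM where Cmax was unknown.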

[1] = curve of first compound, second compound 0.0316 µM
[2] = curve of first compound, second compound 0.1 µM
[3] = curve of first compound, second compound 0.316 µM
[4] = curve of first compound, second compound 1 µM
[5] = curve of first compound, second compound 3.16 µM
[6] = curve of first compound, second compound 10 µM
[7] = second compound 0.0316 µM, first compound 0.0316 µM
[8] = second compound 0.0316 µM, first compound 0.1 µM
[9] = second compound 0.0316 µM, first compound 0.316 µM
[10] = second compound 0.0316 µM, first compound 1 µM
[11] = second compound 0.0316 µM, first compound 3.16 µM
[12] = second compound 0.0316 µM, first compound 10 µM
[13] = second compound 0.1 µM, first compound 0.0316 µM
[14] = second compound 0.1 µM, first compound 0.1 µM
[15] = second compound 0.1 µM, first compound 0.316 µM
[16] = second compound 0.1 µM, first compound 1 µM
[17] = second compound 0.1 µM, first compound 3.16 µM
[18] = second compound 0.1 µM, first compound 10 µM
[19] = second compound 0.316 µM, first compound 0.0316 µM
[20] = second compound 0.316 µM, first compound 0.1 µM
[21] = second compound 0.316 µM, first compound 0.316 µM
[22] = second compound 0.316 µM, first compound 1 µM
[23] = second compound 0.316 µM, first compound 3.16 µM
[24] = second compound 0.316 µM, first compound 10 µM
[25] = second compound 1 µM, first compound 0.0316 µM
[26] = second compound 1 µM, first compound 0.1 µM
[27] = second compound 1 µM, first compound 0.316 µM
[28] = second compound 1 µM, first compound 1 µM
[29] = second compound 1 µM, first compound 3.16 µM
[30] = second compound 1 µM, first compound 10 µM
[31] = second compound 3.16 µM, first compound 0.0316 µM
[32] = second compound 3.16 µM, first compound 0.1 µM
[33] = second compound 3.16 µM, first compound 0.316 µM
[34] = second compound 3.16 µM, first compound 1 µM
[35] = second compound 3.16 µM, first compound 3.16 µM
[36] = second compound 3.16 µM, first compound 10 µM
[37] = second compound 10 µM, first compound 0.0316 µM
[38] = second compound 10 µM, first compound 0.1 µM
[39] = second compound 10 µM, first compound 0.316 µM
[40] = second compound 10 µM, first compound 1 µM
[41] = second compound 10 µM, first compound 3.16 µM
[42] = second compound 10 µM, first compound 10 µM
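Note: spheroids exposed to compounds for seven days before readout.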
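Throughout, for viability, T/C: 100% = DMSO vehicle control wells.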

SMILES: COc1ccc([C@@H](O)c2cc(-c3ncnc4cc(N5CCOCC5)ccc34)c(F)cc2Cl)nn1 + CNC(=O)c1ccc(Nc2nc(OC3CCCC3)c3c(-c4ccc5nc(C)oc5c4)c[nH]c3n2)c(OC)c1
- IC50 [1]: 6.49 µM
- IC50 [2]: 5.47 µM
- IC50 [3]: 4.05 µM
- IC50 [4]: 3.67 µM
- IC50 [5]: 3.71 µM
- IC50 [6]: 2.27 µM
- viability, T/C [7]: 120%
- viability, T/C [8]: 109%
- viability, T/C [9]: 99%
- viability, T/C [10]: 94.9%
- viability, T/C [11]: 61.8%
- viability, T/C [12]: 41.3%
- viability, T/C [13]: 116%
- viability, T/C [14]: 109%
- viability, T/C [15]: 87.7%
- viability, T/C [16]: 90.1%
- viability, T/C [17]: 67.5%
- viability, T/C [18]: 32.1%
- viability, T/C [19]: 99.4%
- viability, T/C [20]: 102%
- viability, T/C [21]: 75.5%
- viability, T/C [22]: 84.6%
- viability, T/C [23]: 51.9%
- viability, T/C [24]: 29.7%
- viability, T/C [25]: 95.2%
- viability, T/C [26]: 102%
- viability, T/C [27]: 77%
- viability, T/C [28]: 78.3%
- viability, T/C [29]: 52.5%
- viability, T/C [30]: 25.3%
- viability, T/C [31]: 94.3%
- viability, T/C [32]: 74.7%
- viability, T/C [33]: 90%
- viability, T/C [34]: 75.1%
- viability, T/C [35]: 53.9%
- viability, T/C [36]: 27.4%
- viability, T/C [37]: 88.9%
- viability, T/C [38]: 90.9%
- viability, T/C [39]: 81.7%
- viability, T/C [40]: 77.5%
- viability, T/C [41]: 38.9%
- viability, T/C [42]: 28.9%

SMILES: Nc1ccccc1NC(=O)c1ccc(CNC(=O)OCc2cccnc2)cc1
- viability, T/C (compound 0.0316 µM): 104% and 85.5%
- viability, T/C (compound 0.1 µM): 94.5% and 92.8%
- viability, T/C (compound 0.316 µM): 78.2% and 73.5%
- viability, T/C (compound 1 µM): 35.4% and 61.1%
- viability, T/C (compound 3.16 µM): 20% and 20.5%
- viability, T/C (compound 10 µM): 3.38% and 10.9%
- IC50 (curve of compound): 0.713 µM and 1.28 µM

SMILES: CCN1CCN(Cc2ccc(Nc3ncc(F)c(-c4cc(F)c5nc(C)n(C(C)C)c5c4)n3)nc2)CC1 + CN1CCN(c2cc(C(=O)Nc3cc4cc(-c5cnn(C)c5)ccc4cn3)ccn2)CC1
- IC50 [1]: > 1 µM
- IC50 [2]: > 1 µM
- IC50 [3]: < 0.00316 µM
- IC50 [4]: < 0.00316 µM
- IC50 [5]: < 0.00316 µM
- IC50 [6]: < 0.00316 µM
- viability, T/C (second compound 0.0316 µM, first compound 0.00316 µM): 126%
- viability, T/C (second compound 0.0316 µM, first compound 0.01 µM): 113%
- viability, T/C [7]: 119%
- viability, T/C [8]: 112%
- viability, T/C [9]: 116%
- viability, T/C [10]: 103%
- viability, T/C (second compound 0.1 µM, first compound 0.00316 µM): 125%
- viability, T/C (second compound 0.1 µM, first compound 0.01 µM): 122%
- viability, T/C [13]: 115%
- viability, T/C [14]: 115%
- viability, T/C [15]: 123%
- viability, T/C [16]: 107%
- viability, T/C (second compound 0.316 µM, first compound 0.00316 µM): 17.8%
- viability, T/C (second compound 0.316 µM, first compound 0.01 µM): 17.6%
- viability, T/C [19]: 15.1%
- viability, T/C [20]: 19.9%
- viability, T/C [21]: 20.7%
- viability, T/C [22]: 24.4%
- viability, T/C (second compound 1 µM, first compound 0.00316 µM): 1.42%
- viability, T/C (second compound 1 µM, first compound 0.01 µM): 5.67%
- viability, T/C [25]: 1.8%
- viability, T/C [26]: 1.54%
- viability, T/C [27]: 1.56%
- viability, T/C [28]: 6.64%
- viability, T/C (second compound 3.16 µM, first compound 0.00316 µM): 1.54%
- viability, T/C (second compound 3.16 µM, first compound 0.01 µM): 3.86%
- viability, T/C [31]: 2.86%
- viability, T/C [32]: 1.78%
- viability, T/C [33]: 2.22%
- viability, T/C [34]: 5.76%
- viability, T/C (second compound 10 µM, first compound 0.00316 µM): 1%
- viability, T/C (second compound 10 µM, first compound 0.01 µM): 3.61%
- viability, T/C [37]: 0.93%
- viability, T/C [38]: 1.25%
- viability, T/C [39]: 3.23%
- viability, T/C [40]: 3.64%

SMILES: CCN1CCN(Cc2ccc(Nc3ncc(F)c(-c4cc(F)c5nc(C)n(C(C)C)c5c4)n3)nc2)CC1
- viability, T/C (compound 0.00316 µM): 99.8% and 91.7%
- viability, T/C (compound 0.01 µM): 94.1% and 88%
- viability, T/C (compound 0.0316 µM): 92.4% and 109%
- viability, T/C (compound 0.1 µM): 99.5% and 96.7%
- viability, T/C (compound 0.316 µM): 103% and 93.4%
- viability, T/C (compound 1 µM): 92.4% and 82.3%
- IC50 (curve of compound): > 1 µM

SMILES: CC1(C)CCC(CN2CCN(c3ccc(C(=O)NS(=O)(=O)c4ccc(NCC5CCOCC5)c([N+](=O)[O-])c4)c(Oc4cnc5[nH]ccc5c4)c3)CC2)=C(c2ccc(Cl)cc2)C1 + CN1CCN(c2cc(C(=O)Nc3cc4cc(-c5cnn(C)c5)ccc4cn3)ccn2)CC1
- IC50 [1]: 7.68 µM
- IC50 [2]: 7.69 µM
- IC50 [3]: < 0.0316 µM
- IC50 [4]: < 0.0316 µM
- IC50 [5]: < 0.0316 µM
- IC50 [6]: < 0.0316 µM
- viability, T/C [7]: 138%
- viability, T/C [8]: 113%
- viability, T/C [9]: 111%
- viability, T/C [10]: 118%
- viability, T/C [11]: 114%
- viability, T/C [12]: 30.9%
- viability, T/C [13]: 116%
- viability, T/C [14]: 121%
- viability, T/C [15]: 116%
- viability, T/C [16]: 124%
- viability, T/C [17]: 113%
- viability, T/C [18]: 31%
- viability, T/C [19]: 19.3%
- viability, T/C [20]: 16.8%
- viability, T/C [21]: 14.4%
- viability, T/C [22]: 15.5%
- viability, T/C [23]: 11.9%
- viability, T/C [24]: 7.07%
- viability, T/C [25]: 1.25%
- viability, T/C [26]: 1.59%
- viability, T/C [27]: 2.76%
- viability, T/C [28]: 1.46%
- viability, T/C [29]: 2.58%
- viability, T/C [30]: 1.73%
- viability, T/C [31]: 1.65%
- viability, T/C [32]: 3.1%
- viability, T/C [33]: 1.66%
- viability, T/C [34]: 1.86%
- viability, T/C [35]: 3.99%
- viability, T/C [36]: 4.73%
- viability, T/C [37]: 0.92%
- viability, T/C [38]: 2.13%
- viability, T/C [39]: 0.62%
- viability, T/C [40]: 0.79%
- viability, T/C [41]: 2.58%
- viability, T/C [42]: 3.9%

SMILES: CC1COCCN1c1cc(C2(S(C)(=N)=O)CC2)nc(-c2ccnc3[nH]ccc23)n1 (configuration not stated)
- viability, T/C (compound 0.0316 µM): 96.7% and 86.2%
- viability, T/C (compound 0.1 µM): 110% and 86.8%
- viability, T/C (compound 0.316 µM): 98.8% and 87.7%
- viability, T/C (compound 1 µM): 72.7% and 79%
- viability, T/C (compound 3.16 µM): 58.1% and 61.5%
- viability, T/C (compound 10 µM): 34.3% and 34.9%
- IC50 (curve of compound): 4.04 µM and 5.18 µM
